Results published in patent publication US20020115728A1, “Compositions and methods for treating cardiovascular disorders” (priority 2000, published 2002).

How the values were obtained:
apoE−/−;LDLr−/− mice = test: Plasma lipid and vitamin E levels; assay type: in vivo; details: chow with 0.03% bisphenol, 14 weeks
Description: Male apoE−/−;LDLr−/− mice (59 total), were maintained on standard R3 chow from weaning to 8 weeks of age (young controls, n=9). Thereafter mice received R3 chow with (n=25) or without supplemented bisphenol (n=25) for an additional 14 weeks. Standard R3-mouse chow was fortified with bisphenol at 0.03% (w/w), a level of supplementation shown in pilot experiments to afford circulating concentrations of the drug of ˜200 μM, considered suitable to test the effect of the co-antioxidant on atherogenesis in this animal model. At 22 weeks of age 10 and 15 mice of each group were used for biochemical and histological analyses, respectively. […]
Analyses of oxidised and non-oxidised lipids were carried out by RP-HPLC as described in Example 1 except that in some instances UV234 nm rather than post-column chemiluminescence detection was used to measure C18:2-OOH and the corresponding hydroxides (together referred to as CE-O(O)H) which show similar retention times under these chromatographic conditions. α-TQ, α-TOH, α-tocotrienol, D-isosascorbate and ascorbate were determined by HPLC with electrochemical detection. For oxidation of plasma, unesterified cholesterol (which remained non-oxidised in these experiments) was employed as internal standard for all polyunsaturated, lipid-soluble components analysed. […] All compounds were quantified by peak area comparison with authentic standards. […]

[1] = tested on: apoE−/−;LDLr−/− mouse aortae; test: Aqueous and lipophilic parameters of aortic homogenates; assay type: in vivo, mice; details: for Aortic Ascorbate: apoE−/−;LDLr−/− mice
Description: Mouse aortas were excised as follows: after bleeding, the heart was perfused with Dulbecco's phosphate-buffered saline containing 100 μM BHT and 1 mM EDTA (maximum pressure 80 mm Hg) through the left ventricle, the right side chamber being opened to allow flow. For histological samples only, the vasculature was subsequently fixed with formal saline. The hearts and entire aortas from all treatment groups were removed and immediately cleaned of fat and connective tissue. Aortas for biochemical analyses were frozen immediately ([…]) without formalin fixation.
Cleaned aortic segments were thawed, blotted, pooled (n=7 or 8), weighed, added to 2 mL of argon-flushed phosphate-buffered saline (to give ˜40 mg wet tissue/mL) containing BHT (100 μM) and EDTA (1 mM). The tissue was minced with scissors, isoascorbate (5 μM) and α-tocotrienol (1 μM) added as internal standards for ascorbate and vitamin E (including α-TQ), respectively, and the samples transferred to a polytetrafluoroethylene-lined glass tube and homogenised at 4° C. for 5 minutes using a teflon piston rotating at 500 r.p.m. For recovery of oxidised lipids, [^3H]-Ch18:2-OH was incorporated into human LDL and added to the vessel prior to homogenisation. […] For ascorbate measurement, raw homogenate (50 μL) was added to metaphosphoric acid (5% v/v, 50 μL) and frozen on dry ice. Immediately before HPLC analysis, the aliquots were thawed and diluted with phosphate buffer (50 μL, 250 mM, pH 7.4), to adjust the pH. For the analyses of lipids, the remaining homogenate (˜1.8 mL) was divided into 4×450 μl aliquots and each extracted with chilled methanol (2 mL) and hexane (10 mL). Hexane phases were combined and evaporated to dryness and the residue resuspended in isopropanol (200 μL).
Analyses of oxidised and non-oxidised lipids were carried out by RP-HPLC as described in Example 1 except that in some instances UV234 nm rather than post-column chemiluminescence detection was used to measure C18:2-OOH and the corresponding hydroxides (together referred to as CE-O(O)H) which show similar retention times under these chromatographic conditions. α-TQ, α-TOH, α-tocotrienol, D-isosascorbate and ascorbate were determined by HPLC with electrochemical detection. For oxidation of plasma, unesterified cholesterol (which remained non-oxidised in these experiments) was employed as internal standard for all polyunsaturated, lipid-soluble components analysed. Bisphenol and diphenoquinone were analysed by RP-HPLC: flow 1.5 mL/min, 100% solvent A (MeCN/MeOH/H20 10:10:3, v/v/v) for 0-15 min monitored at 270 nm, followed by 50% solvent A and B (MeCN/MeOH 1:1, v/v) for 15-22 min at 242 nm and then 100% B for 22-28 min at 420 nm. Bisphenol and diphenoquinone eluted at 9 and 27 min, respectively. All compounds were quantified by peak area comparison with authentic standards. Where indicated, total cholesterol and triglyceride were assayed enzymatically (Boehringer, Mannheim, Germany).
Unless otherwise stated lipid and antioxidant levels are expressed as pmol/mg protein. LH, lipid containing bisallylic hydrogens. §Values are expressed as nmol/mg protein. Protein ranged from 2.4 - 3.3 mg/mL. ¶Value given represents ratio ×10^3. †Mice were ranked in order of plasma concentration of bisphenol, then corresponding aortae were pooled into groups of 7 and 8 on the basis of plasma drug-levels giving two distinct groups. Low and high bisphenol correspond to 106±40 and 212±50 μM, respectively. Control aortas were pooled randomly into two groups of 7 and 8 respectively.

[2] = tested on: atherosclerosis in apoE−/−;LDLr−/− mice; test: Evaluation of atherosclerosis (intima volume, descending thoracic aorta); assay type: in vivo; details: bisphenol for 14 weeks
Description: Aortic lesions were assessed in segments centered around the third pair of intercostal artery branches in the descending thoracic aorta. Briefly, the fixed aortas were dehydrated in ethanol, cleared with xylene and embedded in paraffin. Serial sections (10 in total; each 2-3 μm thick and 100 μm apart) were cut and stained using Weigerts hematoxylin-van Gieson. Aortic thickening was assessed as the total volume of intima in the segment investigated in bisphenol-treated versus control samples.
Aortic volumes were determined by planimetry, using a Lucivid device (MicroBrightField, Colchester, Vermont, […]) attached to a Leitz DRM microscope that allowed the superposition of a computer monitor onto the cross sectional image.

SMILES: CC(C)(C)c1cc(-c2cc(C(C)(C)C)c(O)c(C(C)(C)C)c2)cc(C(C)(C)C)c1O [Bisphenol, bisphenol]
- Plasma Triglycerides (apoE−/−;LDLr−/− mice): 6.3 (0.5) mm
- Aortic C ([1]; Bisphenol [high]): 190 nmol/mg protein
- Aortic C18:2 ([1]; Bisphenol [high]): 13.3 nmol/mg protein
- Aortic C20:4 ([1]; Bisphenol [high]): 8.5 nmol/mg protein
- Aortic CE-O(O)H ([1]; Bisphenol [high]): 2.8 pmol/mg protein
- Aortic CE-O(O)H/LH ([1]; Bisphenol [high]): 0.002 ratio ×10^3
- Aortic α-TOH ([1]; Bisphenol [high]): 586 pmol/mg protein
- Aortic α-TQ ([1]; Bisphenol [high]): 3.5 pmol/mg protein
- Aortic Ascorbate ([1]; Bisphenol [high] (plasma 212±50 μM)): 2570 pmol/mg protein
- Aortic C ([1]; Bisphenol [low]): 204 nmol/mg protein
- Aortic C18:2 ([1]; Bisphenol [low]): 21.0 nmol/mg protein
- Aortic C20:4 ([1]; Bisphenol [low]): 12.7 nmol/mg protein
- Aortic CE-O(O)H ([1]; Bisphenol [low]): 14.1 pmol/mg protein
- Aortic CE-O(O)H/LH ([1]; Bisphenol [low]): 0.145 ratio ×10^3
- Aortic α-TOH ([1]; Bisphenol [low]): 669 pmol/mg protein
- Aortic α-TQ ([1]; Bisphenol [low]): 4.9 pmol/mg protein
- Aortic Ascorbate ([1]; Bisphenol [low] (plasma 106±40 μM)): 3204 pmol/mg protein
- level of aortic oxidised lipids lower than control ([1]; animals with high plasma levels of bisphenol): 1000 fold
- level of aortic oxidised lipids lower than control ([1]; animals with low plasma levels of bisphenol): 10 fold
- lesion size (intimal volume, descending thoracic aorta) vs age-matched controls [2]: substantially decreased
